Source: patent publication US9757408B2 (Hayashibara Co., Ltd., priority 2010, dated 2017)
Marks after values point to notes of the source that are not given here.

Assays:
[1] = test system: IL-8 production from NHEK cells; test: IL-8 production from NHEK cells irradiated with ultraviolet B (Experiment 17); format: cell-based, human; details: for IL-8: NHEK cells, stimulation by ultraviolet rays; for production of IL-8 from NHEK cells induced by ultraviolet rays: UVB 40 mJ/cm^2, supernatant at six hours
Experimental: “CELLMATRIX TYPE IV”, a product name of collagen for tissue culture commercialized by Nitta Gelatin Inc., Osaka, Japan, which had been diluted with PBS(K-) by 10 times, was previously placed in “FALCON 35-3001”, a product name of 35 mm petri dish commercialized by Becton Dickinson and Company, NJ, USA, in an amount of 1 mL/plate, and then allowed to stand at ambient temperature for 10 min, followed by removing an excessive amount of CELLMATRIX, drying the petri dish in air, and washing it thrice with PBS(K-). […] The cells were cultured at 37° C. in a 5% v/v CO2 incubator. On the 2nd and 4th days after the cell inoculation, the medium was replaced with EpiLife medium free of EDGS (1 mL/plate). On the 5th day after the cell inoculation, the supernatant was removed, and the petri dish was washed twice by adding 1 mL/petri dish of Hanks' balanced salt solution (called “HBSS (−) buffer”, hereinafter). Further, 2 mL/petri dish of HBSS (−) buffer was added to the petri dish which was then placed in the position 15 cm apart from an ultraviolet ray light source and irradiated with 40 mJ/cm^2 of ultraviolet B radiation. […] As an ultraviolet ray light source, “NS-8F”, a light source for actual use commercialized by Sanwa Medical Co., Ltd., Okayama, Japan, equipped with an ultraviolet B radiation lamp was used, and the radiation dose was measured on “UVR-305/365D (II)”, an ultraviolet ray meter commercialized by Topcon Corporation, Tokyo, Japan. TNF-α was assayed by the same method as in Experiment 2. The remaining other cytokines were assayed with an IL-1α assay kit, commercialized by R & D Systems Inc., MN, USA, and an IL-8 assay kit commercialized by BioLegend, CA, USA.

[2] = test system: IL-6 production from mouse intraperitoneal macrophages; test: IC50 for IL-6 production from mouse macrophages, LPS + IFN-γ (Experiment 19); format: cell-based; details: for IC50: Mus musculus, Macrophage, 20 h, read-out: IC50 Concentration IL-6
Description: After completion of the culture, the supernatant in each well was collected and assayed for cytokines and prostaglandin E2 (called “PGE2”, hereinafter) with ELISA.

[3] = test system: mice with bacterial shock induced by LPS; test: LPS bacterial shock mice, survival, ANO, adenosine or inosine i.v. (Experiment 9); format: in vivo, BALB/c mice; details: LPS 18 mg/kg i.p.
Experimental: An LPS specimen derived from E. coli (055:B5), commercialized by Sigma-Aldrich Corporation, St. Louis, Mo. USA, was dissolved in PBS and intraperitoneally administered to all the seven mice in the four groups at a dose of 18 mg/kg body weight. […] Seven mice in the remaining one group were intravenously administered with PBS as a control in a volume of 0.2 mL/head (Experiment group 1). For each group, the survival number of mice was confirmed up to 7 to 43 hours after administering LPS and the survival rate (%) of mice in each group was determined.

[4] = test system: mice with concanavalin A (Con A) induced liver disorder; test: Concanavalin A induced liver disorder mice: GPT, GOT, liver necrosis score (Experiment 12); format: in vivo, BALB/c mice; parameters: Liver function GPT / Liver function GOT: unit not given here; details: Con A 15 mg/kg i.v.; for Liver function GOT / Liver function GPT: serum 20 hours after Con A; for Conditions of liver tissue, Necrosis (average score): grades mild (1), moderate (2), severe (3)
Experimental: “TYPE IV”, a Con A specimen commercialized by Sigma-Aldrich Corporation, St. Louis, Mo. USA, was dissolved in physiological saline and intravenously administered to all the five mice in each six groups at a dose of 15 mg/0.2 mL. […] The five mice in the remaining one group as a control were intravenously administered with 0.2 mL/head of physiological saline, simultaneously with Con A (Experiment group 1).
For the mice in each group, they were collected blood at 20 hours after administering Con A, followed by assaying the activity of GPT and GOT in their sera with “TRANSAMINASE CII-TEST WAKO”, a commercialized assay kit produced by Wako Pure Chemical Industries Ltd., Tokyo, Japan, for use as an index for liver disorder due to hepatitis. […] The tissue specimens were stained with hematoxylin-eosin staining, followed by calculating an average of scores for judgement on the conditions of necrosis of liver tissues by microscopic observation, for use as an index for liver disorder. The results are in Table 12 in parallel. The conditions of necrosis of liver tissues were evaluated based on a microscopic observation standard of three grades of “mild (1)”, “moderate (2)”, and “severe (3)” and scored before determining the average for each group.

## Nc1ncnc2c1ncn2[C@@H]1O[C@H](CO)[C@@H](O)[C@H]1O [AN, adenosine]
[1]; 1 μM
  IL-8: 177 pg/mL
[1]; 5 μM
  IL-8: 172 pg/mL
[1]; 10 μM
  IL-8: 175 pg/mL
[1]
  production of IL-8 from NHEK cells induced by ultraviolet rays: did not influence
[2]
  IC50: 50.1 µM
[3]; 127 mg/kg i.v. simultaneously
  Survival rate (%) of mice, 7 Hours: 100%
  Survival rate (%) of mice, 19 Hours: 20%
  Survival rate (%) of mice, 26 Hours: 0%
  Survival rate (%) of mice, 43 Hours: 0%
[4]; 127 mg/kg i.v. simultaneously
  Liver function GOT: 4130*
  Liver function GPT: 1917
[4]; 127 mg/kg i.v.
  Conditions of liver tissue, Necrosis (average score): 2.5

## Nc1c2ncn([C@@H]3O[C@H](CO)[C@@H](O)[C@H]3O)c2nc[n+]1[O-] [ANO, adenosine N1-oxide]
[1]; 1 μM
  IL-8: 107 pg/mL
[1]; 5 μM
  IL-8: 89 pg/mL
[1]; 10 μM
  IL-8: 51 pg/mL
[1]
  production of IL-8 from NHEK cells induced by ultraviolet rays: inhibited
[2]
  IC50: 0.9 µM
[2]; mouse intraperitoneal macrophages stimulated with LPS and IFN-γ
  inhibition of the production of IL-6 (in words): strongly inhibited
[3]; 135 mg/kg i.v. simultaneously
  Survival rate (%) of mice, 7 Hours: 100%
  Survival rate (%) of mice, 19 Hours: 80%
  Survival rate (%) of mice, 26 Hours: 80%
  Survival rate (%) of mice, 43 Hours: 80%
[4]; 45 mg/kg i.v. simultaneously
  Liver function GOT: 2941++
  Liver function GPT: 1477*
[4]; 45 mg/kg i.v.
  Conditions of liver tissue, Necrosis (average score): 2.4
[4]; 75 mg/kg i.v. simultaneously
  Liver function GOT: 2654**
  Liver function GPT: 1229*
[4]; 135 mg/kg i.v. simultaneously
  Liver function GOT: 1343**
  Liver function GPT: 687**
[4]; 135 mg/kg i.v.
  Conditions of liver tissue, Necrosis (average score): 2.0

## OC[C@H]1O[C@@H](n2cnc3c(O)ncnc32)[C@H](O)[C@@H]1O [IN, inosine]
[1]; 1 μM
  IL-8: 166 pg/mL
[1]; 5 μM
  IL-8: 169 pg/mL
[1]; 10 μM
  IL-8: 140 pg/mL
[1]
  production of IL-8 from NHEK cells induced by ultraviolet rays: did not influence
[2]; mouse macrophages, LPS and IFN-γ, 20 hours
  IC50 Concentration IL-6: Enhanced
[3]; 127 mg/kg i.v. simultaneously
  Survival rate (%) of mice, 7 Hours: 100%
  Survival rate (%) of mice, 19 Hours: 60%
  Survival rate (%) of mice, 26 Hours: 40%
  Survival rate (%) of mice, 43 Hours: 20%
[4]; 127 mg/kg i.v. simultaneously
  Liver function GOT: 5243
  Liver function GPT: 2061
[4]; 127 mg/kg i.v.
  Conditions of liver tissue, Necrosis (average score): 2.6
